Reference: paper PMC8793051 (ACS Omega, 2022)

Assays:
[1] = tested on: oligo-2: d(CGATGTACATCG)2; test: Fluorescence titration; type: binding; conditions: 20 °C, pH 7.2
[2] = tested on: oligo-1: d(CGCGAATTCGCG)2; test: Fluorescence titration; type: binding; conditions: 20 °C, pH 7.2
[3] = Behaviour of HCl salt in cell culture media; type: physicochemical

Structure (SMILES)	Ka binding affinity with oligo-2 [1]	Ka binding affinity with oligo-1 [2]	behaviour of HCl salt in cell culture media [3]
CCOc1ccc(-c2nc3cc(-c4nc5cc(N6CCN(C)CC6)ccc5[nH]4)ccc3[nH]2)cc1OCC [10a, 2-(2-(3,4-Diethoxyphenyl)-1H-benzo[d]imidazol-5-yl)-5-(4-methylpiperazin-1-yl)-1H-benzo[d]imidazole]	2 × 10^6 M^1	7 × 10^6 M^–1	–
CN1CCN(c2ccc3[nH]c(-c4ccc5[nH]c(-c6ccc(C(F)(F)F)cc6)nc5c4)nc3c2)CC1 [10b, 5-(4-Methylpiperazin-1-yl)-2′-(4-(trifluoromethyl)phenyl)-1H,1′H-2,5′-Bibenzo[d]imidazole]	3 × 10^6 M^1	7 × 10^6 M^–1	–
COc1ccc(OC)c(-c2nc3ccc(-c4nc5ccc(N6CCN(C)CC6)cc5[nH]4)cc3[nH]2)c1 [10c, 2′-(2,5-Dimethoxyphenyl)-6-(4-methylpiperazin-1-yl)-1H,3′H-2,5′-bibenzo[d]imidazole]	2 × 10^6 M^1	8 × 10^6 M^–1	–
CCCN1CCN(c2ccc3[nH]c(-c4ccc5[nH]c(-c6ccc(C(F)(F)F)cc6)nc5c4)nc3c2)CC1 [11b, 2-(4-(Trifluoromethyl)phenyl)-5-(5-(4-propylpiperazin-1-yl)-1H-benzo[d]imidazol-2-yl)-1H-benzo[d]imidazole]	2 × 10^6 M^1	7 × 10^6 M^–1	–
CCCN1CCN(c2ccc3nc(-c4ccc5nc(-c6cc(OC)ccc6OC)[nH]c5c4)[nH]c3c2)CC1 [11c, 2′-(2,5-Dimethoxyphenyl)-6-(4-propylpiperazin-1-yl)-1H,3′H-2,5′-bibenzo[d]imidazole]	3 × 10^6 M^1	7 × 10^6 M^–1	–
CCCN1CCN(c2ccc3[nH]c(-c4ccc5[nH]c(-c6cc(OC)c(OC)c(OC)c6)nc5c4)nc3c2)CC1 [11d, 5-(4-Propylpiperazin-1-yl)-2′-(3,4,5-trimethoxyphenyl)-1H,1′H-2,5′-bibenzo[d]imidazole]	1 × 10^6 M^1	–	–
CCCCN1CCN(c2ccc3nc(-c4ccc5nc(-c6cc(OC)ccc6OC)[nH]c5c4)[nH]c3c2)CC1 [12c, 6-(4-Butylpiperazin-1-yl)-2′-(2,5-dimethoxyphenyl)-1H,3′H-2,5′-bibenzo[d]imidazole]	2 × 10^6 M^1	–	–
CCCCN1CCN(c2ccc3[nH]c(-c4ccc5[nH]c(-c6cc(OC)c(OC)c(OC)c6)nc5c4)nc3c2)CC1 [12d, 5-(4-Butylpiperazin-1-yl)-2-(2-(3,4,5-trimethoxyphenyl)-1H-benzo[d]imidazol-5-yl)-1H-benzo[d]imidazole]	4 × 10^6 M^1	–	–
CCCCN1CCN(c2ccc3[nH]c(-c4ccc5[nH]c(-c6ccc(OCC)cc6)nc5c4)nc3c2)CC1 [12e, 5-(4-Butylpiperazin-1-yl)-2′-(4-ethoxyphenyl)-1H,1′H-2,5′-bibenzo[d]imidazole]	3 × 10^6 M^1	1 × 10^7 M^–1	–
CCOc1ccc(-c2nc3ccc(-c4nc5ccc(N6CCN(CCN(C)C)CC6)cc5[nH]4)cc3[nH]2)cc1OCC [13a, 2-(4-(2′-(3,4-Diethoxyphenyl)-1H,3′H-[2,5′-bibenzo[d]imidazol]-6-yl)piperazin-1-yl)N,N-dimethylethan-1-amine]	2 × 10^6 M^1	9 × 10^6 M^–1	precipitating in cell culture media
COc1ccc(OC)c(-c2nc3ccc(-c4nc5ccc(N6CCN(CCN(C)C)CC6)cc5[nH]4)cc3[nH]2)c1 [13c, 2-(4-(2′-(2,5-Dimethoxyphenyl)-1H,3′H-[2,5′-bibenzo[d]imidazol]-6-yl)piperazin-1-yl)-N,N-dimethylethan-1-amine]	1 × 10^6 M^1	5 × 10^6 M^–1	precipitating in cell culture media
COc1cc(-c2nc3ccc(-c4nc5ccc(N6CCN(CCN(C)C)CC6)cc5[nH]4)cc3[nH]2)cc(OC)c1OC [13d, 2-(4-(2′-(3,4,5-Trimethoxyphenyl)-1H,3′H-[2,5′-bibenzo[d]imidazol]-6-yl)piperazin-1-yl) N,N-Dimethylethan-1-amine]	1 × 10^6 M^1	5 × 10^6 M^–1	precipitating in cell culture media
CCOc1ccc(-c2nc3ccc(-c4nc5ccc(N6CCN(C)CC6)cc5[nH]4)cc3[nH]2)cc1 [Hoechst 33342, reference compound]	5 × 10^6 M^1	2 × 10^7 M^–1	–
